From patent US4734418A, “Quinazoline compounds and antihypertensives” (priority 1984, dated 1988)
Like-named read-outs stand apart in the source and are kept apart here.

Test system: Spontaneously Hypertensive Rats
Experiment: Test 1: antihypertensive effects (systolic tail artery blood pressure) and heart rate in spontaneously hypertensive rats, oral
Type: in vivo, rat (male, SHR)
Conditions: SHR; for change in vivo at 1 mg/kg / change in vivo at 10 mg/kg: Rattus norvegicus; for Change (%) in heart rate: maximum value
Protocol: The antihypertensive effects of the certain compounds of this invention were studied in the following manner.
Among male, spontaneously hypertensive rats (SHRs) of 20 weeks of age or older and 350-430 g heavy all of which had developed hypertension, those having systolic blood pressures of 180 mmHg or higher were used in groups, each of which was constituted of 3-4 of the rats. […] Besides, heart rates were also measured simultaneously. The compounds were each dissolved or suspended in a 0.5% methylcellulose solution and then administered orally.
*All administered orally at a dosage of 1 mg/Kg except for the compounds
**Each percent change in heart rate is indicated by the corresponding

[1] = oral 1 mg/Kg, 1 hour, read-out: Antihypertensive effects, change (%) in blood pressure, 1 hour later
[2] = oral 1 mg/Kg, 3 hours, read-out: Antihypertensive effects, change (%) in blood pressure, 3 hours later
[3] = oral 1 mg/Kg, 6 hours, read-out: Antihypertensive effects, change (%) in blood pressure, 6 hours later
[4] = oral 1 mg/Kg, 24 hours, read-out: Antihypertensive effects, change (%) in blood pressure, 24 hours later

Compound | change in vivo at 1 mg/kg [1] [%] | change in vivo at 1 mg/kg [2] [%] | change in vivo at 1 mg/kg [3] [%] | change in vivo at 1 mg/kg [4] [%] | Change (%) in heart rate (oral 1 mg/Kg) | change in vivo at 10 mg/kg (oral 10 mg/Kg, 1 hour, read-out: Antihypertensive effects, change (%) in blood pressure, 1 hour later) [%] | change in vivo at 10 mg/kg (oral 10 mg/Kg, 3 hours, read-out: Antihypertensive effects, change (%) in blood pressure, 3 hours later) [%] | change in vivo at 10 mg/kg (oral 10 mg/Kg, 6 hours, read-out: Antihypertensive effects, change (%) in blood pressure, 6 hours later) [%] | change in vivo at 10 mg/kg (oral 10 mg/Kg, 24 hours, read-out: Antihypertensive effects, change (%) in blood pressure, 24 hours later) [%] | Change (%) in heart rate (oral 10 mg/Kg)
CCCN(CCC)C(=O)c1cnc(N2CCN(c3nc(N)c4cc(OC)c(OC)cc4n3)CC2)nc1NCC [Example 80] | -13.9 | -26 | -33.2 | -10.1 | +12.3% | – | – | – | – | –
CCN(CC)C(=O)c1ccc(N2CCN(c3nc(N)c4cc(OC)c(OC)cc4n3)CC2)nc1 [Example 93] | -4.5 | -9 | -10.5 | -5 | +8.0% | – | – | – | – | –
COc1cc2nc(N3CCN(c4ncc(C#N)c(O)n4)CC3)nc(N)c2cc1OC [Example 51] | 8.6 | 0 | -4.1 | -2.5 | +3.0% | – | – | – | – | –
CCNC(=O)c1cnc(N2CCN(c3nc(N)c4cc(OC)c(OC)cc4n3)CC2)nc1 [Example 37] | -4.7 | -16.4 | -21.1 | -8.5 | +5.8% | – | – | – | – | –
COc1cc2nc(N3CCN(c4nc(N)c5cc(OC)c(OC)cc5n4)CC3)nc(N)c2cc1OC [Example 72] | 2.9 | -2 | -2.5 | -2.9 | +8.6% | – | – | – | – | –
CCOC(=O)c1cnc(N2CCN(c3nc(N)c4cc(OC)c(OC)cc4n3)CC2)nc1N(C)C [Example 56] | -21.4 | -22.4 | -22.9 | -4.5 | +13.5% | – | – | – | – | –
COc1cc2nc(N3CCN(c4ncc5c(=O)n(Cc6ccccc6)ccc5n4)CC3)nc(N)c2cc1OC [Example 10] | 1.5 | -14.4 | -11.9 | -5 | +5.2% | – | – | – | – | –
CCNc1nc(N2CCN(c3nc(N)c4cc(OC)c(OC)cc4n3)CC2)ncc1C(=O)OCC [Example 57] | -10.4 | -18.9 | -27.9 | -9 | +4.3% | – | – | – | – | –
COc1cc2nc(N3CCN(c4ncc(C(=O)NCc5ccccc5)c(C)n4)CC3)nc(N)c2cc1OC [Example 44] | 9.1 | 0 | -4 | 0 | +7.9% | – | – | – | – | –
COc1cc2nc(N3CCN(c4ncc5c(n4)CN(CCN(C)C)C5=O)CC3)nc(N)c2cc1OC [Example 86] | 0.5 | 0 | -6.4 | -0.5 | +7.1% | – | – | – | – | –
COc1cc2nc(N3CCN(c4ncc5c(n4)CN(CCO)C5=O)CC3)nc(N)c2cc1OC [Example 88] | 0.5 | -4.4 | -6.9 | -2 | +5.8% | – | – | – | – | –
CCNC(=O)c1cnc(N2CCN(c3nc(N)c4cc(OC)c(OC)cc4n3)CC2)nc1CC [Example 38] | -26.6 | -24.1 | -27.6 | -7.9 | +7.9% | – | – | – | – | –
CCN(CC)C(=O)c1cnc(N2CCN(c3nc(N)c4cc(OC)c(OC)cc4n3)CC2)nc1N [Example 65] | – | – | – | – | – | -4.9 | -18.4 | -21.4 | -6.3 | +8.9%
CCOc1nccc2nc(N3CCN(c4nc(N)c5cc(OC)c(OC)cc5n4)CC3)ncc12 [Example 74] | -0.5 | -14.1 | -23.3 | -12.1 | +9.0% | – | – | – | – | –
CCn1ccc2nc(N3CCN(c4nc(N)c5cc(OC)c(OC)cc5n4)CC3)ncc2c1=S [Example 16] | -2 | -8.9 | -15.3 | -8.9 | +7.5% | – | – | – | – | –
CCOC(=O)c1cnc(N2CCN(c3nc(N)c4cc(OC)c(OC)cc4n3)CC2)nc1NC(C)=O [Example 60] | -1.6 | -5.2 | -8.8 | -1 | +6.0% | – | – | – | – | –

Compound | change in vivo at 1 mg/kg [1] [%] | change in vivo at 1 mg/kg [2] [%] | change in vivo at 1 mg/kg [3] [%] | change in vivo at 1 mg/kg [4] [%] | Change (%) in heart rate (oral 1 mg/Kg) | change in vivo at 10 mg/kg (oral 10 mg/Kg, 1 hour, read-out: Antihypertensive effects, change (%) in blood pressure, 1 hour later) [%] | change in vivo at 10 mg/kg (oral 10 mg/Kg, 3 hours, read-out: Antihypertensive effects, change (%) in blood pressure, 3 hours later) [%] | change in vivo at 10 mg/kg (oral 10 mg/Kg, 6 hours, read-out: Antihypertensive effects, change (%) in blood pressure, 6 hours later) [%] | change in vivo at 10 mg/kg (oral 10 mg/Kg, 24 hours, read-out: Antihypertensive effects, change (%) in blood pressure, 24 hours later) [%] | Change (%) in heart rate (oral 10 mg/Kg)
CCn1ccc2c(c1=O)CN=C(N1CCN(c3nc(N)c4cc(OC)c(OC)cc4n3)CC1)N2 [Example 35] | -0.5 | -8.7 | -16.3 | -15.9 | +9.1% | – | – | – | – | –
COc1cc2nc(N3CCN(c4ncc5c(=O)[nH]ccc5n4)CC3)nc(N)c2cc1OC [Example 3] | -2.5 | -8 | -15.1 | -5 | +7.1% | – | – | – | – | –
CCNc1nc(N2CCN(c3nc(N)c4cc(OC)c(OC)cc4n3)CC2)ncc1C(=O)N(C)C [Example 79] | -27.9 | -33.7 | -45.2 | -21.2 | +22.3% | – | – | – | – | –
CCCN1Cc2nc(N3CCN(c4nc(N)c5cc(OC)c(OC)cc5n4)CC3)ncc2C1=O [Example 26] | -8.8 | -15.2 | -21.6 | -4.9 | +9.8% | – | – | – | – | –
COc1cc2nc(N3CCN(c4nc(SC)c5c6c(sc5n4)CCCC6C)CC3)nc(N)c2cc1OC (stereo not shown) [Example 75] | 12.2 | 0.5 | -7.8 | -3.9 | +8.2% | – | – | – | – | –
CCCCN1Cc2nc(N3CCN(c4nc(N)c5cc(OC)c(OC)cc5n4)CC3)ncc2C1=O [Example 27] | -5.4 | -17.6 | -21 | -2.4 | +8.3% | – | – | – | – | –
COc1cc2nc(N3CCN(c4ncc(C(=O)N(C)C)c(C)n4)CC3)nc(N)c2cc1OC [Example 46] | 0 | -11.9 | -17.5 | -5.7 | +7.4% | – | – | – | – | –
CCNc1nc(N2CCN(c3nc(N)c4cc(OC)c(OC)cc4n3)CC2)ncc1C(=O)OC(C)C [Example 61] | -2.4 | -22 | -28.2 | -12 | +12.4% | – | – | – | – | –
COc1cc2nc(N3CCN(c4ncc(C(=O)Nc5ccccc5)c(C)n4)CC3)nc(N)c2cc1OC [Example 43] | 4.5 | 0.5 | -6.5 | -9.5 | +5.7% | – | – | – | – | –
CCn1cc(Cc2ccccc2)c2nc(N3CCN(c4nc(N)c5cc(OC)c(OC)cc5n4)CC3)ncc2c1=O [Example 15] | -2.9 | -7.7 | -12 | -7.7 | +3.7% | – | – | – | – | –
COCCn1ccc2nc(N3CCN(c4nc(N)c5cc(OC)c(OC)cc5n4)CC3)ncc2c1=O [Example 8] | -0.5 | -9.5 | -11.4 | -4 | +5.2% | – | – | – | – | –
CCOC(=O)c1cnc(N2CCN(c3nc(N)c4cc(OC)c(OC)cc4n3)CC2)nc1N(CC)CC [Example 58] | -7.4 | -17.6 | -22.5 | -9.8 | +9.8% | – | – | – | – | –
CCNc1nc(N2CCN(c3nc(N)c4cc(OC)c(OC)cc4n3)CC2)ncc1C(=O)N(CC)CC [Example 67] | -21.4 | -28.6 | -38.4 | -16.7 | +7.4% | – | – | – | – | –
CNc1nc(N2CCN(c3nc(N)c4cc(OC)c(OC)cc4n3)CC2)ncc1C(=O)N(C)C [Example 69] | -12.9 | -22.7 | -24.7 | -4.6 | +7.4% | – | – | – | – | –
CCn1ccc2nc(N3CCCN(c4nc(N)c5cc(OC)c(OC)cc5n4)CC3)ncc2c1=O [Example 82, 4-Amino-6,7-dimethoxy-2-(4-(5,6-dihydro-6-ethyl-5-oxopyrido[4,3-d]pyrimidin-2-yl)homopiperazino)quinazoline] | 0.5 | -6.9 | -8.8 | -6.4 | +5.8% | – | – | – | – | –
CCNC(=O)c1cnc(N2CCN(c3nc(N)c4cc(OC)c(OC)cc4n3)CC2)nc1C [Example 41] | -11.2 | -19.5 | -25.9 | -3.9 | +9.2% | – | – | – | – | –
